In article PMC9481608, “Synthesis of natural product hybrids by the Ugi reaction in complex media containing plant extracts” (Scientific Reports, 2022):

The compounds below were run against T1, α-chymotrypsin (bovine pancreatic) (Bos taurus, UniProt P00766) (assay: biochemical). Details: not given.
T1 construct: native enzyme from bovine pancreas, commercial, used as received
Set-up: alpha-chymotrypsin inhibition, SAAPFpNA (100 uM) hydrolysis, absorbance at 410 nm, 25 °C, pH 7.8
Description: Bovine pancreatic α-chymotrypsin was purchased from Sigma-Aldrich (C4129) and used as received. Enzyme solutions were kept on ice during the experiments. The molecular mass of α-chymotrypsin was taken as 25 kDa. N-Succinyl-L-alanine-L-alanine-L-proline-L-phenylalanine-p-nitroanilide (SAAPFpNA) was purchased from Sigma-Aldrich (S7388), prepared as a 10 mM stock solution in DMSO, and stored at − 30 °C. A microbial chymostatin, a mixture of chymostatin A–C, was purchased from Peptide Institute (4063) and used as a positive control. DMSO for biochemical research was purchased from Nacalai and used as received. Other reagents were purchased from Nacalai and used as received. The concentration–response curves were plotted and IC50 values were calculated by GraphPad Prism 8 software using a sigmoidal concentration–response curve analysis with variable slope. Absorbance was measured with a JASCO V-660 spectrometer at 25 °C. According to the reported procedure, the assay was performed in Tris–HCl buffer (80 mM, pH 7.8) containing α-chymotrypsin (6 nM, final concentration) and CaCl2 (10 mM, final concentration). After 30 min of incubation with the test compound at 25 °C, the enzymatic reaction was initiated by adding SAAPFpNA (100 μM, final concentration) to give a final volume of 700 μL. Reaction progress was monitored by absorbance at 410 nm at 25 °C for 5 min. The final concentration of DMSO was 3% (v/v). The prepared Ugi adducts have a diamide motif and were therefore subjected to a protease inhibition assay. Protease inhibitors have received increasing attention for their therapeutic potential against respiratory virus infections including severe acute respiratory syndrome coronavirus 2 (SARS-CoV-2)[34],[35]. The inhibitory activity of the Ugi adducts was determined in the presence of 6 nM α-chymotrypsin and 100 μM succinyl-Ala-Ala-Pro-Phe-p-nitroanilide[36]. […] Thus, the proposed engineering method, although preliminary, can be used to create novel candidates for α-chymotrypsin inhibitors. Further structural optimization, such as removal of the benzyl group on the amide nitrogen, construction of a dipeptide motif, and installation of an aromatic amino acid residue at the C-terminal of dipeptides[37] will improve the inhibitory activities of the Ugi adducts and will be reported in due course. The molecular weights of the synthesized plant product-like molecules were in the range of 492.70–1011.57 g mol^−1, which corresponds to the category of beyond the rule of five (bRo5)[38], or middle-molecules. Therefore, the present chemical hybridization method could be used to construct a small library of middle-molecules mimicking natural products, which is useful for the discovery of peptidic modulators of protein–protein interactions. Ongoing biological evaluations of the present molecules will unveil their specific pharmaceutical potential.
Compound `Cc1ccc(S(=O)(=O)CNC(=O)C(c2ccccc2)N(Cc2ccccc2)C(=O)CCl)cc1` (stereo not shown) [1a, N-Benzyl-2-chloro-N-(2-oxo-1-phenyl-2-((tosylmethyl)amino)ethyl)acetamide] has an inhibition at 10 µM of 4.7 ± 1.1%. With `O=C(NC1CCCCC1)C(c1ccccc1)N(Cc1ccccc1)C(=O)CCl` (stereo not shown) [1b, N-Benzyl-2-chloro-N-(2-(cyclohexylamino)-2-oxo-1-phenylethyl)acetamide] the inhibition at 10 µM was 9.2 ± 2%. Work on `CC(C)C(C(=O)NC1CCCCC1)N(Cc1ccccc1)C(=O)CCl` (stereo not shown) [1c, 2-(N-Benzyl-2-chloroacetamido)-N-cyclohexyl-3-methylbutanamide] yielded an inhibition at 10 µM of 4.4 ± 2%. With `CC1=C(C(C(=O)NC2CCCCC2)N(Cc2ccccc2)C(=O)CCl)C(C)(C)CCC1` (stereo not shown) [1d, N-Benzyl-2-chloro-N-(2-(cyclohexylamino)-2-oxo-1-(2,6,6-trimethylcyclohex-1-en-1-yl)ethyl)acetamide] the inhibition at 10 µM was 8.9 ± 2.1%. `O=C(CCl)N(Cc1ccccc1)C1(C(=O)NC2CCCCC2)CCCC1` [1e, 1-(N-Benzyl-2-chloroacetamido)-N-cyclohexylcyclopentane-1-carboxamide] showed an inhibition at 10 µM of 0.2 ± 0.8%. Compound `Cc1ccc(S(=O)(=O)CNC(=O)C2(N(Cc3ccccc3)C(=O)CCl)CCCC2)cc1` [1f, 1-(N-Benzyl-2-chloroacetamido)-N-(tosylmethyl)cyclopentane-1-carboxamide] has an inhibition at 10 µM of 7.1 ± 1%. `O=C(NC1CCCCC1)C(c1ccccc1)N(C(=O)CCl)c1ccc2ccc3cccc4ccc1c2c34` (stereo not shown) [1g, 2-Chloro-N-(2-(cyclohexylamino)-2-oxo-1-phenylethyl)-N-(pyren-1-yl)acetamide] was tested, and the IC50 was 4.5 ± 0.3 µM and the inhibition at 10 µM was 83.7 ± 1.8%. For `CC(=O)N(Cc1ccccc1)C(C(=O)NC1CCCCC1)c1ccccc1` (stereo not shown) [1h, 2-(N-Benzylacetamido)-N-cyclohexyl-2-phenylacetamide], the inhibition at 10 µM was 2.4 ± 1.6%. `O=C(NC1CCCCC1)C(c1ccccc1)N(Cc1ccccc1)C(=O)C1CCCCC1` (stereo not shown) [1i, N-Benzyl-N-(2-(cyclohexylamino)-2-oxo-1-phenylethyl)cyclohexanecarboxamide] was tested, and the inhibition at 10 µM was 3.8 ± 0.4%. `CC(C)=CCCC(C)CC(C(=O)NC1CCCCC1)N(Cc1ccccc1)C(=O)CC[C@@H](C)[C@H]1CC[C@H]2[C@@H]3[C@@H](O)C[C@@H]4C[C@H](O)CC[C@]4(C)[C@H]3CC[C@]12C` (stereo partly drawn) [1j, 2-((R)-N-Benzyl-4-((3R,5S,7S,8R,9S,10S,13R,14S,17R)-3,7-dihydroxy-10,13-dimethylhexadecahydro-1H-cyclopenta[a]phenanthren-17-yl)pentanamido)-N-cyclohexyl-4,8-dimethylnon-7-enamide] showed an IC50 of 9.2 ± 0.8 µM and an inhibition at 10 µM of 62.3 ± 0.2%.

Same assay, conditions: read-out: % Inhibition (10 μM)
`Nc1ccc2ccc3cccc4ccc1c2c34` [1-Aminopyrene] gave an inhibition at 10 µM of 5.6 ± 1%. Compound `CCCCCC[C@@H](O)C/C=C\CCCCCCCC(=O)O` [(R)-Ricinoleic acid] has an inhibition at 10 µM of 3 ± 0.9%. With `NCc1ccccc1` [Benzylamine] the inhibition at 10 µM was 7 ± 1.4%. In the case of `CC(=O)CC[C@@H]1[C@H]2CC(=C(C)C)C(=O)C[C@@]12C` [Curcumenone (6)], the inhibition at 10 µM is reported as 7.8 ± 1.2%. `[C-]#[N+]CS(=O)(=O)c1ccc(C)cc1` [TosMIC] gave an inhibition at 10 µM of 0.5 ± 0.5%.

What follows are compounds tested against T1, α-chymotrypsin (bovine pancreatic) (assay: chromogenic protease inhibition assay, absorbance at […] nm). Details: not given.
Format: biochemical
Work on `CCCCCC[C@@H](O)C/C=C\CCCCCCCC(=O)N(Cc1ccccc1)C(C)(CC[C@@H]1[C@H]2CC(=C(C)C)C(=O)C[C@@]12C)C(=O)NC1CCCCC1` (mixture of isomers) [compound 10, Ugi adduct 10] yielded an IC50 of 7.7 ± 0.6 µM. `CCCCCC[C@@H](O)C/C=C\CCCCCCCC(=O)N(Cc1ccccc1)C(CC(C)CCC=C(C)C)C(=O)NC1CCCCC1` (stereo partly shown) [8a, Ugi adduct 8a] was tested, and the IC50 was 7.3 ± 0.6 µM. `CCCCCC[C@@H](O)C/C=C\CCCCCCCC(=O)O[C@@H](C/C=C\CCCCCCCC(=O)N(Cc1ccccc1)C(CC(C)CCC=C(C)C)C(=O)NC1CCCCC1)CCCCCC` (stereo partly shown) [8b, Ugi adduct 8b] gave an IC50 of 13.4 ± 1.3 µM. Work on `CC(C)=C1C[C@@H]2[C@@H](CCC(C)(C(=O)NC3CCCCC3)N(C(=O)CCl)c3ccc4ccc5cccc6ccc3c4c56)[C@]2(C)CC1=O` (stereo partly shown) [compound 7, Ugi adduct 7] yielded an IC50 of 3.1 ± 0.1 µM. `CCCCCC[C@@H](O)C/C=C\CCCCCCCC(=O)N(Cc1ccccc1)C(C(=O)NC1CCCCC1)c1ccccc1` (stereo partly shown) [compound 9, Ugi adduct 9] gave an IC50 of 7.9 ± 0.5 µM.

These compounds were tested against T1, α-chymotrypsin (bovine pancreatic) in the same assay as above. Details: 100 μM SAAPFpNA, 6 nM enzyme, 80 mM Tris-HCl pH 7.8, 10 mM CaCl2, 25 °C, 30 min preincubation, 3% DMSO.
Format: biochemical
With `CC(C)=C1C[C@@H]2[C@@H](CCC(C)(C(=O)NC3CCCCC3)N(Cc3ccccc3)C(=O)CCl)[C@]2(C)CC1=O` (mixture of isomers) [compound 4, Ugi adduct 4] the “% Inhibition (10 μM)^a” value was 3.1 ± 0.9%. In the case of `CC(=O)N(Cc1ccccc1)C(C)(CC[C@@H]1[C@H]2CC(=C(C)C)C(=O)C[C@@]12C)C(=O)NC1CCCCC1` (mixture of isomers) [compound 5, Ugi adduct 5], the “% Inhibition (10 μM)^a” value is reported as 4.2 ± 1.7%. With `CC(=O)N(Cc1ccccc1)C(CC(C)CCC=C(C)C)C(=O)NCS(=O)(=O)c1ccc(C)cc1` (racemic) [compound 2, Ugi adduct 2] the “% Inhibition (10 μM)^a” value was 9.2 ± 1.6%.
